The values below are quoted from earlier work in patent US20230381309A1, “METHODS OF TREATING DIFFUSE LARGE B-CELL LYMPHOMA” (IMMUNOVACCINE TECHNOLOGIES INC., priority 2020, published 2023).

In this data set the test system is relapsed/refractory DLBCL.

Like-named read-outs stand apart in the source and are kept apart here.

As to “nivolumab: PD1 antibody (Opdivo; Bristol-Myers Squibb)”, the objective response rate by setting is: (patients having failed autologous transplantation) 10%; (patients ineligible for autologous transplantation) 3%.
